target: T1, GLP-1 Receptor (Homo sapiens, UniProt P43220); experiment: GLP-1R agonist cAMP stimulation assay (HEK293/GLP1R/CRE-LUC cells, Cisbio cAMP dynamic 2 kit); type: cell-based; conditions: HEK293/CRE-Luc cells stably expressing the GLP-1 Receptor, 30 min at 37° C.
T1 construct: host or cells: HEK293/CRE-Luc (HEK293/GLP1R/CRE-LUC)
Method: Activation of GLP-1 receptor is known to stimulate cyclic AMP (cAMP) production in cells which indicates primary coupling to the Gas subunit of the G protein heterotrimeric complex.
To optimize functional activity directed toward Gas coupling, a HEK293/CRE-Luc cell line developed by HDB stably expressing the GLP-1 Receptor was used. 200× concentration of compound working solutions were prepared (Agilent Technologies Bravo) with ½ log serial dilution in 384-well Echo LDV plate (Labcyte, Cat #LP-0200). […] 200× concentration of compound working solutions were moved to 384-well white low volume plate (Greiner, Cat #784075) using Labcyte ECHO550. 1×10^5 cells/mL HEK293/GLP1R/CRE-LUC (HD Biosciences) cell suspensions prepared with assay buffer [DPBS containing 0.5 mM IBMX (Sigma, Cat #15879) and 0.1% BSA (GENVIEW, Cat #FA016-100g)], 10 μL cell suspensions were added to each well of previous generated assay plate which already contains […] compound at 200×concentration using ThermoFisher Multidrop Combi (1000 cells/well). Seal the plate and incubate at 37° C. with 5% CO2 for 30 min.
After incubation the cAMP assay signal was generated using cAMP dynamic 2 Kit (Cisbio). 5 μL cAMP-d2 working solution was added to each well, followed with 5 μL Anti-cAMP antibody-cryptate working solution added to each well using ThermoFisher Multidrop Combi. Incubate at room temperature for 1 hour protected from light. Read the fluorescence at 665 and 615 nm with Reader PerkinElmer EnVision.

T1 sequence (P43220 24-463, species assumed): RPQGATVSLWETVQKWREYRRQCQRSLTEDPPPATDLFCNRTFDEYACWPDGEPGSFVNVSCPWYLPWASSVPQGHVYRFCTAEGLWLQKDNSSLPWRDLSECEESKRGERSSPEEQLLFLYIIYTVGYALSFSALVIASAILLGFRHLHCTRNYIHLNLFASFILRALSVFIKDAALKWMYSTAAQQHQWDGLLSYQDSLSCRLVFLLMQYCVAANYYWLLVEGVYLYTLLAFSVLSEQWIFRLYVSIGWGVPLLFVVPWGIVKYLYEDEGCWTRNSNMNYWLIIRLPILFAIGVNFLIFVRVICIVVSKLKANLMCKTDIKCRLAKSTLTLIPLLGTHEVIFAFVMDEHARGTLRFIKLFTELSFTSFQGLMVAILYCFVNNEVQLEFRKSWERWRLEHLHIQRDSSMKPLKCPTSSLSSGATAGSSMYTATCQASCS

EC50, < 1 nM:
Fc1cc(Cl)ccc1COc1cccc([C@H]2CCN(Cc3nc4cc(-c5nnc(C(F)(F)F)[nH]5)ncc4n3C[C@@H]3CCO3)C[C@@H]2F)n1 (single isomer, unassigned) [Compound 58]
Fc1cc(Cl)ccc1COc1cccc([C@@H]2CCN(Cc3nc4cc(-c5nnc(C(F)(F)F)[nH]5)ncc4n3C[C@@H]3CCO3)C[C@H]2F)n1 (single isomer, unassigned) [Compound 59]
C[C@]1(c2ccc(Cl)cn2)Oc2cccc([C@H]3CCN(Cc4nc5cc(-c6nnc(C(F)(F)F)[nH]6)cnc5n4C[C@@H]4CCO4)C[C@@H]3F)c2O1 (single isomer, unassigned) [Compound 60]
C[C@]1(c2ccc(Cl)cn2)Oc2cccc([C@@H]3CCN(Cc4nc5cc(-c6nnc(C(F)(F)F)[nH]6)cnc5n4C[C@@H]4CCO4)C[C@H]3F)c2O1 (single isomer, unassigned) [Compound 61]
C[C@]1(c2ccc(Cl)cn2)Oc2cccc([C@H]3CCN(Cc4nc5cc(-c6nnc(C(F)(F)F)[nH]6)ncc5n4C[C@@H]4CCO4)C[C@@H]3F)c2O1 (single isomer, unassigned) [Compound 62]
C[C@]1(c2ccc(Cl)cn2)Oc2cccc([C@@H]3CCN(Cc4nc5cc(-c6nnc(C(F)(F)F)[nH]6)ncc5n4C[C@@H]4CCO4)C[C@H]3F)c2O1 (single isomer, unassigned) [Compound 63]
Fc1ccc(COc2cccc(C3CCN(Cc4nc5cc(-c6nnc(C(F)(F)F)[nH]6)ncc5n4C[C@@H]4CCO4)CC3)n2)c(F)c1 [Compound 1, 2-[(2,4-difluorophenyl)methoxy]-6-{1-[(3-{[(2S)-oxetan-2-yl]methyl}-6-[5-(trifluoromethyl)-4H-1,2,4-triazol-3-yl]-3H-imidazo[4,5-c]pyridin-2-yl)methyl]piperidin-4-yl}pyridine]
COc1cc(Cl)ccc1COc1cccc(C2CCN(Cc3nc4cc(-c5nnc(C(F)(F)F)[nH]5)ncc4n3C[C@@H]3CCO3)CC2)n1 [Compound 2, (S)-2-((4-(6-((4-chloro-2-methoxybenzyl)oxy)pyridin-2-yl)piperidin-1-yl)methyl)-3-(oxetan-2-ylmethyl)-6-(5-(trifluoromethyl)-4H-1,2,4-triazol-3-yl)-3H-imidazo[4,5-c]pyridine]
COc1c(F)ccc(COc2cccc(C3CCN(Cc4nc5cc(-c6nnc(C(F)(F)F)[nH]6)ncc5n4C[C@@H]4CCO4)CC3)n2)c1F [Compound 3, (S)-2-((4-(6-((2,4-difluoro-3-methoxybenzyl)oxy)pyridin-2-yl)piperidin-1-yl)methyl)-3-(oxetan-2-ylmethyl)-6-(5-(trifluoromethyl)-4H-1,2,4-triazol-3-yl)-3H-imidazo[4,5-c]pyridine]
Cc1c(Cl)ccc(COc2cccc(C3CCN(Cc4nc5cc(-c6nnc(C(F)(F)F)[nH]6)ncc5n4C[C@@H]4CCO4)CC3)n2)c1F [Compound 4, 2-[(4-chloro-2-fluoro-3-methylphenyl)methoxy]-6-{1-[(3-{[(2S)-oxetan-2-yl]methyl}-6-[5-(trifluoromethyl)-4H-1,2,4-triazol-3-yl]-3H-imidazo[4,5-c]pyridin-2-yl)methyl]piperidin-4-yl}pyridine]
Cc1c(F)ccc(COc2cccc(C3CCN(Cc4nc5cc(-c6nnc(C(F)(F)F)[nH]6)ncc5n4C[C@@H]4CCO4)CC3)n2)c1F [Compound 5, 2-[(2,4-difluoro-3-methylphenyl)methoxy]-6-{1-[(3-{[(2S)-oxetan-2-yl]methyl}-6-[5-(trifluoromethyl)-4H-1,2,4-triazol-3-yl]-3H-imidazo[4,5-c]pyridin-2-yl)methyl]piperidin-4-yl}pyridine]
Fc1cc(Cl)cc(F)c1COc1cccc(C2CCN(Cc3nc4cc(-c5nnc(C(F)(F)F)[nH]5)ncc4n3C[C@@H]3CCO3)CC2)n1 [Compound 6, (S)-2-((4-(6-((4-chloro-2,6-difluorobenzyl)oxy)pyridin-2-yl)piperidin-1-yl)methyl)-3-(oxetan-2-ylmethyl)-6-(5-(trifluoromethyl)-4H-1,2,4-triazol-3-yl)-3H-imidazo[4,5-c]pyridine]
FC(F)Oc1ccc(COc2cccc(C3CCN(Cc4nc5cc(-c6nnc(C(F)(F)F)[nH]6)ncc5n4C[C@@H]4CCO4)CC3)n2)cn1 [Compound 7, 2-{[6-(difluoromethoxy)pyridin-3-yl]methoxy}-6-{1-[(3-{[(2S)-oxetan-2-yl]methyl}-6-[5-(trifluoromethyl)-4H-1,2,4-triazol-3-yl]-3H-imidazo[4,5-c]pyridin-2-yl)methyl]piperidin-4-yl}pyridine]
FC(F)Oc1cc(COc2cccc(C3CCN(Cc4nc5cc(-c6nnc(C(F)(F)F)[nH]6)ncc5n4C[C@@H]4CCO4)CC3)n2)ccn1 [Compound 8, (S)-2-((4-(6-((2-(difluoromethoxy)pyridin-4-yl)methoxy)pyridin-2-yl)piperidin-1-yl)methyl)-3-(oxetan-2-ylmethyl)-6-(5-(trifluoromethyl)-4H-1,2,4-triazol-3-yl)-3H-imidazo[4,5-c]pyridine]
FC(F)Oc1cccc(COc2cccc(C3CCN(Cc4nc5cc(-c6nnc(C(F)(F)F)[nH]6)ncc5n4C[C@@H]4CCO4)CC3)n2)n1 [Compound 9, (S)-2-((4-(6-((6-(difluoromethoxy)pyridin-2-yl)methoxy)pyridin-2-yl)piperidin-1-yl)methyl)-3-(oxetan-2-ylmethyl)-6-(5-(trifluoromethyl)-4H-1,2,4-triazol-3-yl)-3H-imidazo[4,5-c]pyridine]
FC(F)(F)Oc1cccc(COc2cccc(C3CCN(Cc4nc5cc(-c6nnc(C(F)(F)F)[nH]6)ncc5n4C[C@@H]4CCO4)CC3)n2)n1 [Compound 10, (S)-3-(oxetan-2-ylmethyl)-2-((4-(6-((6-(trifluoromethoxy)pyridin-2-yl)methoxy)pyridin-2-yl)piperidin-1-yl)methyl)-6-(5-(trifluoromethyl)-4H-1,2,4-triazol-3-yl)-3H-imidazo[4,5-c]pyridine]
FC(F)(F)Oc1cccc(COc2cccc(C3CCN(Cc4nc5cc(-c6nnc(C(F)(F)F)[nH]6)ncc5n4C[C@@H]4CCO4)CC3)n2)c1 [Compound 11, (S)-3-(oxetan-2-ylmethyl)-2-((4-(6-((3-(trifluoromethoxy)benzyl)oxy)pyridin-2-yl)piperidin-1-yl)methyl)-6-(5-(trifluoromethyl)-4H-1,2,4-triazol-3-yl)-3H-imidazo[4,5-c]pyridine]
Cc1ccc(COc2cccc(C3CCN(Cc4nc5cc(-c6nnc(C(F)(F)F)[nH]6)ncc5n4C[C@@H]4CCO4)CC3)n2)nc1OC(F)F [Compound 12, (S)-2-((4-(6-((6-(difluoromethoxy)-5-methylpyridin-2-yl)methoxy)pyridin-2-yl)piperidin-1-yl)methyl)-3-(oxetan-2-ylmethyl)-6-(5-(trifluoromethyl)-4H-1,2,4-triazol-3-yl)-3H-imidazo[4,5-c]pyridine]

— patent US20250250269A1, “HETEROCYCLIC GLP-1 AGONISTS” (Gasherbrum Bio, Inc., priority 2022, published 2025)
